{
  "source": "the NIST ThermoML archive (doi:10.1021/je3007138)",
  "details": "351.2 K; Liquid; Ebulliometric method (Recirculating still)",
  "note": "Numbers after ± are expanded uncertainties.",
  "data": [
    {"smiles": "CCO", "note": "[ethanol]", "values": [
      {"measurement": "vapor or sublimation pressure", "value": "101.3 ± 3", "unit": "kPa"}
    ]}
  ]
}
